The experiment has as its system P. falciparum (NF54 or 3D7 strain). As to the kind of experiment: Assay for P. falciparum proliferation in infected human blood cells (SYBR Green). The experiment is classed as cell-based, Plasmodium falciparum. The conditions noted are these: Plasmodium falciparum, Erythrocyte, 72 h, NF54 or 3D7 infected human erythrocytes, 72 hours; read-out: EC50 (nM), inhibitory efficacy in delaying P. falciparum proliferation in infected human blood cells. The procedure, abridged: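 Infected erythrocytes (NF54 or 3D7; final 2.5% hematocrit, 0.3% parasitemia) were incubated with compounds for 72 h at 37 °C in low oxygen (3% O2, 4% CO2, 93% N2).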
On to `Cc1ccc(-c2cnc3cnc(C(=O)N(C)c4ccc(C#N)cc4)cn23)cc1` [Compound 113, N-(4-cyanophenyl)-N-methyl-3-(4-methylphenyl)imidazo[1,2-a]pyrazine-6-carboxamide], for which the EC50 is 81 nM. As to `CCN(C(=O)c1cn2c(-c3ccc(C(F)(F)F)cc3)cnc2cn1)c1ccc(C#N)cc1` [Compound 114, N-(4-cyanophenyl)-N-ethyl-3-[4-(trifluoromethyl)phenyl]imidazo[1,2-a]pyrazine-6-carboxamide], the EC50 amounted to 76 nM. Regarding `CC(C)c1ccc(-c2cnc3cnc(C(=O)N(C)c4ccc(C#N)cc4)cn23)cc1` [Compound 115, N-(4-cyanophenyl)-N-methyl-3-[4-(propan-2-yl)phenyl]imidazo[1,2-a]pyrazine-6-carboxamide], the EC50 stood at 82 nM. In the case of `CN(C(=O)c1cn2c(-c3ccc(OC(F)(F)F)cc3)cnc2cn1)c1ccc(C#N)cc1` [Compound 116, -(4-cyanophenyl)-N-methyl-3-[4-(trifluoromethoxy)phenyl]imidazo[1,2-a]pyrazine-6-carboxamide] it was 230 nM; in that of `CNc1ccc(-c2cnc3cnc(C(=O)N(C)c4ccc(C#N)cc4)cn23)cc1` [Compound 117, N-(4-cyanophenyl)-N-methyl-3-[4-(methylamino)phenyl]imidazo[1,2-a]pyrazine-6-carboxamide], 92 nM; in that of `CN(C(=O)c1cn2c(-c3ccc(C(C)(C)C)cc3)cnc2cn1)c1ccc(C#N)cc1` [Compound 118, 3-(4-tert-butylphenyl)-N-(4-cyanophenyl)-N-methylimidazo[1,2-a]pyrazine-6-carboxamide], 135 nM. The same measure for `CN(C(=O)c1cn2c(-c3ccc(C(F)(F)F)cc3)cnc2cn1)c1ccccc1F` [Compound 119, N-(2-fluorophenyl)-N-methyl-3-[4-(trifluoromethyl)phenyl]imidazo[1,2-a]pyrazine-6-carboxamide]: 507 nM; for `CN(C(=O)c1cn2c(-c3ccc(C(C)(C)C#N)cc3)cnc2cn1)c1ccc(C#N)cc1` [Compound 120, -[4-(1-cyano-1-methylethyl)phenyl]-N-(4-cyanophenyl)-N-methylimidazo[1,2-a]pyrazine-6-carboxamide]: 147 nM; for `CN(C)c1ccc(-c2cnc3cnc(C(=O)N(C)c4ccc(F)cc4)cn23)cc1` [Compound 121, 3-[4-(dimethylamino)phenyl]-N-(4-fluorophenyl)-N-methylimidazo[1,2-a]pyrazine-6-carboxamide]: 259 nM.

In the case of `CN(C)c1ccc(-c2cnc3cnc(C(=O)N(C)c4ccc(Cl)cc4)cn23)cc1` [Compound 122, N-(4-chlorophenyl)-3-[4-(dimethylamino)phenyl]-N-methylimidazo[1,2-a]pyrazine-6-carboxamide], the EC50 was determined as 266 nM. As to `CN(C(=O)c1cn2c(-c3ccc4c(ccn4C)c3)cnc2cn1)c1ccc(C#N)cc1` [Compound 123, N-(4-cyanophenyl)-N-methyl-3-(1-methyl-1H-indol-5-yl)imidazo[1,2-a]pyrazine-6-carboxamide], the EC50 amounted to 387 nM. In the case of `CN(C(=O)c1cn2c(-c3ccc(N)cc3)cnc2cn1)c1ccc(C#N)cc1` [Compound 124, 3-(4-aminophenyl)-N-(4-cyanophenyl)-N-methylimidazo[1,2-a]pyrazine-6-carboxamide] it was 217 nM; in that of `CN(C(=O)c1cn2c(-c3ccc(-c4ccco4)cc3)cnc2cn1)c1ccc(C#N)cc1` [Compound 125, N-(4-cyanophenyl)-3-[4-(furan-2-yl)phenyl]-N-methylimidazo[1,2-a]pyrazine-6-carboxamide], 369 nM. In the case of `CN(C(=O)c1cn2c(-c3ccc(C(F)(F)F)cc3)cnc2cn1)c1ccc(C#N)c(F)c1` [Compound 126, N-(4-cyano-3-fluorophenyl)-N-methyl-3-[4-(trifluoromethyl)phenyl]imidazo[1,2-a]pyrazine-6-carboxamide] it was 125 nM.

The values above are taken from patent publication US20150291598A1 (NOVARTIS AG, priority 2012, published 2015).
